Assay results as given in patent publication EP0942911B1, “BENZOPYRANOPYRROLE AND BENZOPYRANOPYRIDINE ALPHA-1 ADRENERGIC COMPOUNDS” (Abbott Laboratories, priority 1996, dated 1998).
Where a name gives a salt, the structure may show the parent alone. Read-outs that look alike come from different tables or passages of the source.

How the values were obtained:
[1] = biological target: T1, α-1b adrenoreceptor (Mesocricetus auratus, UniProt P18841); assay: biochemical; assay type: binding, hamster; conditions: read-out: Radioligand Binding (Ki, nM) 1b (Hamster)
T1 sequence (P18841 1-515): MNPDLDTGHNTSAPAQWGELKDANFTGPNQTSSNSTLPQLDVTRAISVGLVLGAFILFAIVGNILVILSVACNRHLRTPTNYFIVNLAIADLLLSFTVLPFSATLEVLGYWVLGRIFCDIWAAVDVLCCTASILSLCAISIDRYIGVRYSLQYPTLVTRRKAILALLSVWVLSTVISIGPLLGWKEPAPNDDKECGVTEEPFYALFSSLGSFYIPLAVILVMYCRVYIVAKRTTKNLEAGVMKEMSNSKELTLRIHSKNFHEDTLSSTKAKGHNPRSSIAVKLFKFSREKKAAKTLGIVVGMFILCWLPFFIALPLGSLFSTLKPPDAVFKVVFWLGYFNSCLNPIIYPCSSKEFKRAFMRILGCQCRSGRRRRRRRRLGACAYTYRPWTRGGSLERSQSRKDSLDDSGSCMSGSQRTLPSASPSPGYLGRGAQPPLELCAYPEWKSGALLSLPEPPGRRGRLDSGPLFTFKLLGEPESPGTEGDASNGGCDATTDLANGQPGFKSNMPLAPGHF
Method in brief: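 Affinities are from radioligand binding on membranes of mouse LTK fibroblast clones stably expressing each cloned α-1 subtype; rat submaxillary gland served as native α-1A tissue.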

[2] = biological target: T2, α-1A adrenoreceptor (Rattus norvegicus, UniProt P43140); assay: cell-based; conditions: phenylephrine-induced contraction; Schild plot; read-out: In Vitro Characterization (pA2) Rat Vas (converted)
T2 sequence (P43140 1-466): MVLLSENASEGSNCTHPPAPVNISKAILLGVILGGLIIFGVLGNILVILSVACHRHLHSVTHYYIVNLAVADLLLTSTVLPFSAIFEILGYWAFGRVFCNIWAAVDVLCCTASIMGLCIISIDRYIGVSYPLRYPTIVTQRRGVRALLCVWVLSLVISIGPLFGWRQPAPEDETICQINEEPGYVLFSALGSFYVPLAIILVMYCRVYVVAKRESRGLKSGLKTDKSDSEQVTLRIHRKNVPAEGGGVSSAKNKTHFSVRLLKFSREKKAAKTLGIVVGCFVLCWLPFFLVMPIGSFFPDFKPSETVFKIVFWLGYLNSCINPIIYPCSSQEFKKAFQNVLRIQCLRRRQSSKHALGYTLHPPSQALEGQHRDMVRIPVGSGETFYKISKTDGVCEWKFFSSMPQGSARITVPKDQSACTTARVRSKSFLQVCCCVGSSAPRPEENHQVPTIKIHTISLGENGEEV
Description: Functional assays indicative of pharmacologically defined α-1 adrenoreceptors were used to further characterize compounds. Inhibition of phenylephrine (PE)-induced contraction of canine prostate smooth muscle can be correlated with α-1A adrenoreceptor activation. […] For each of these models, agonist dose response curves were repeated against increasing concentrations of test agent to derive a Schild plot [log ([…]) against log (molarity of test agent)] to determine the pA2.

[3] = [3H]-prazosin radioligand, cloned receptor in LTK cell membranes

`COc1cccc2c1[C@@H]1CN(CCCCn3c(=O)[nH]c4c(sc5ccnc(OC)c54)c3=O)C[C@H]1CO2` [Example 49, 3-[4-((3aS,9bR)-trans-9-Methoxy-1,2,3,3a,4,9b-hexahydro-[1]-benzopyrano[3,4-c]pyrrol-2-yl)butyl]-9-methoxy-pyrido[3',4':4,5]thieno[3,2-d]pyrimidine-2,4(1H,3H)-dione fumarate] was tested, and the Ki [1, 3] was 0.129 nM.

`COc1cccc2c1[C@@H]1CN(CCn3c(=O)[nH]c4c(sc5ccccc54)c3=O)C[C@@H]1CO2.Cl` (racemic) [Example 65, 3-[2-((±)-cis-9-Methoxy-1,2,3,3a,4,9b-hexahydro-[1]-benzopyrano[3,4-c]pyrrol-2-yl)ethyl]-[1]benzthieno[3,2-d]pyrimidine-2,4(1H,3H)-dione hydrochloride] was tested, and the Ki [1] was 20.7 nM.

`COc1cccc2c1[C@@H]1CN(CCCCn3c(=O)[nH]c4c(sc5c(Cl)nccc54)c3=O)C[C@@H]1CO2` [Example 53, 3-[4-((3aR,9bR)-cis-9-Methoxy-1,2,3,3a,4,9b-hexahydro-[1]-benzopyrano[3,4-c]pyrrol-2-yl)butyl]-6-chloro-pyrido[4',3':4,5]thieno[3,2-d]pyrimidine-2,4(1H,3H)-dione] gave a Ki [1, 3] of 9.42 nM and a Kb [2] of 0.49 nM.

For `COc1cccc2c1[C@@H]1CN(CCCCn3c(=O)[nH]c4c(sc5ccc(Cl)nc54)c3=O)C[C@H]1CO2` [Example 25, 3-[4-((3aS,9bR)-trans-9-Methoxy-1,2,3,3a,4,9b-hexahydro-[1]-benzopyrano[3,4-c]pyrrol-2-yl)butyl]-8-chloro-pyrido[2',3':4,5]thieno[3,2-d]pyrimidine-2,4(1H,3H)-dione dihydrochloride], the Ki [1, 3] was 0.591 nM and the Kb [2] was 0.12 nM.

With `COc1cccc2c1[C@@H]1CN(CCCCn3c(=O)[nH]c4c(sc5ncccc54)c3=O)C[C@@H]1CO2` [Example 34, 3-[4-((3aR,9bR)-cis-9-Methoxy-1,2,3,3a,4,9b-hexahydro-[1]-benzopyrano[3,4-c]pyrrol-2-yl)butyl]-pyrido[3',2':4,5]thieno[3,2-d]pyrimidine-2,4(1H,3H)-dione hydrochloride] the Ki [1, 3] was 3.37 nM and the Kb [2] was 0.589 nM.

With `COc1cccc2c1[C@@H]1CCN(CCCCn3c(=O)[nH]c4c(sc5ncccc54)c3=O)C[C@H]1CO2` (racemic) [Example 85, 3-[4-((±)-trans-10-Methoxy-1,3,4,4a,5,10b-hexahydro-2H-[1]-benzopyrano[3,4-c]pyrido-3-yl)butyl]-pyrido[3',2':4,5]thieno[3,2-d]pyrimidine-2,4(1H,3H)-dione dihydrochloride] the Ki [1, 3] was 1.89 nM.

With `COc1cc2[nH]c(=O)n(CCCCN3C[C@@H]4COc5ccccc5[C@@H]4C3)c(=O)c2cc1OC` (racemic) [Example 81, 3-[4-((±1-cis-1,2,3,3a,4,9b-hexahydro-[1]-benzopyrano[3,4-c]pyrrol-2-yl)butyl]-6,7-dimethoxy-quinazoline-2,4(1H,3H)-dione hydrochloride] the Ki [1, 3] was 0.192 nM.

`COc1cccc2c1[C@@H]1CN(CCCCn3c(=O)[nH]c4c(sc5ccnc(Cl)c54)c3=O)C[C@@H]1CO2` [Example 48, 3-[4-((3aR,9bR)-cis-9-Methoxy-1,2,3,3a,4,9b-hexahydro-[1]-benzopyrano[3,4-c]pyrrol-2-yl)butyl]-9-chloro-pyrido[3',4';4,5]thieno[3,2-d]pyrimidine-2,4(1H,3H)-dione hydrochloride] was tested, and the Ki [1, 3] was 5.75 nM.

`COc1cccc2c1[C@H]1CN(CCCCn3c(=O)[nH]c4c(sc5cccnc54)c3=O)C[C@H]1CO2` [Example 2, 3-[4-((3aS,9bS)-cis-9-Methoxy-1,2,3,3a,4,9b-hexahydro-[1]-benzopyrano[3,4-c]pyrrol-2-yl)butyl]-pyrido[2',3':4,5]thieno[3,2-d]pyrimidine-2,4(1H,3H)-dione hydrochloride] showed a Ki [1, 3] of 9.23 nM.

In the case of `COc1cccc2c1[C@@H]1CN(CCCCn3c(=O)[nH]c4c(sc5cccnc54)c3=O)C[C@H]1CO2` [Example 3, 3-[4-((3aS,9bR)-trans-9-Methoxy-1,2,3,3a,4,9b-hexahydro-[1]-benzopyrano[3,4-c]pyrrol-2-yl)butyl]-pyrido[2',3':4,5]thieno[3,2-d]pyrimidine-2,4(1H,3H)-dione hydrochloride], the Ki [1, 3] was 0.286 nM.

Work on `COc1cnc2sc3c(=O)n(CCCCN4CC5COc6cccc(OC)c6[C@@H]5C4)c(=O)[nH]c3c2n1.Cl` (stereo in doubt) [Example 43, 3-[4-((3aS,9bR)-trans-9-Methoxy-1,2,3,3a,4,9b-hexahydro-[1]-benzopyrano[3,4-c]pyrrol-2-yl)butyl]-8-methoxy-pyrazino[2',3':4,5]thieno[3,2-d]pyrimidine-2,4(1H,3H)-dione hydrochloride] yielded a Ki [1, 3] of 1.49 nM.

`COc1cccc2c1[C@@H]1CCN(CCCCn3c(=O)[nH]c4c(sc5cccnc54)c3=O)C[C@H]1CO2` [Example 95, 3-[4-((4aS,10bR)-trans-10-Methoxy-1,3,4,4a,5,10b-hexahydro-2H-[1]-benzopyrano[3,4-c]pyrido-3-yl)butyl]-pyrido[2',3':4,5]thieno[3,2-d]pyrimidine-2.4(1H,3H)-dione dihydrochloride] was tested, and the Ki [1, 3] was 21.6 nM.

`COc1cccc2c1[C@@H]1CN(CCCCn3c(=O)[nH]c4c(sc5c(Cl)nccc54)c3=O)C[C@H]1CO2` [Example 54, 3-[4-((3aS,9bR)-trans-9-Methoxy-1,2,3,3a,4,9b-hexahydro-[1]-benzopyrano[3,4-c]pyrrol-2-yl)butyl]-6-chloro-pyrido[4',3':4,5]thieno[3,2-d]pyrimidine-2,4(1H,3H)-dione] gave a Ki [1, 3] of 1 nM.

With `COc1cccc2c1[C@@H]1CN(CCCn3c(=O)[nH]c4c(sc5ccccc54)c3=O)C[C@@H]1CO2.Cl` (racemic) [Example 66, 3-[3-((±)-cis-9-Methoxy-1,2,3,3a,4,9b-hexahydro-[1]-benzopyrano[3,4-c]pyrrol-2-yl)propyl]-[1]benzthieno[3,2-d]pyrimidine-2,4(1H,3H)-dione hydrochloride] the Ki [1] was 533 nM.

Work on `Cl.O=c1[nH]c2c(sc3ccccc32)c(=O)n1CCN1C[C@@H]2COc3ccccc3[C@@H]2C1` (racemic) [Example 69, 3-[2-((±)-cis-1,2,3,3a,4,9b-hexahydro-[1]-benzopyrano[3,4-c]pyrrol-2-yl)ethyl]-[1]benzthieno[3,2-d]pyrimidine-2,4(1H,3H)-dione hydrochloride] yielded a Ki [1] of 4.35 nM.

Work on `COc1cccc2c1[C@@H]1CN(CCCCn3c(=O)[nH]c4c(sc5cccnc54)c3=O)C[C@@H]1CO2` [Example 1, 3-[4-((3aR,9bR)-cis-9-Methoxy-1,2,3,3a,4,9b-hexahydro-[1]-benzopyrano[3,4-c]pyrrol-2-yl)butyl]-pyrido[2',3':4,5]thieno[3,2-d]pyrimidine-2,4(1H,3H)-dione hydrochloride] yielded a Ki [1, 3] of 1.14 nM.

`COc1ccc2c(c1)OC[C@H]1CN(CCn3c(=O)[nH]c4c(sc5ccccc54)c3=O)C[C@@H]21.Cl` (racemic) [Example 63, 3-[2-((±)-cis-7-Methoxy-1,2,3,3a,4,9b-hexahydro-[1]-benzopyrano[3,4-c]pyrrol-2-yl)ethyl]-[1]benzthieno[3,2-d]pyrimidine-2,4(1H,3H)-dione hydrochloride] gave a Ki [1] of 92.2 nM.

For `COc1cccc2c1OC[C@H]1CN(CCCn3c(=O)[nH]c4c(sc5ccccc54)c3=O)C[C@@H]21.Cl` (racemic) [Example 68, 3-[3-((±)-cis-6-Methoxy-1,2,3,3a,4,9b-hexahydro-[1]-benzopyrano[3,4-c]pyrrol-2-yl)propyl]-[1]benzthieno[3,2-d]pyrimidine-2,4(1H,3H)-dione hydrochloride], the Ki [1] was 23.6 nM.

Compound `COc1cccc2c1OC[C@H]1CN(CCn3c(=O)[nH]c4c(sc5ccccc54)c3=O)C[C@@H]21.Cl` (racemic) [Example 67, 3-[2-((±)-cis-6-Methoxy-1,2,3,3a,4,9b-hexahydro-[1]-benzopyrano[3,4-c]pyrrol-2-yl)ethyl]-[1]benzthieno[3,2-d]pyrimidine-2,4(1H,3H)-dione hydrochloride] has a Ki [1] of 248 nM.

For `COc1ccc2c(c1)OC[C@H]1CN(CCCn3c(=O)[nH]c4c(sc5ccccc54)c3=O)C[C@@H]21.Cl` (racemic) [Example 64, 3-[3-((±)-cis-7-Methoxy-1,2,3,3a,4,9b-hexahydro-[1]-benzopyrano[3,4-c]pyrrol-2-yl)propyl]-[1]benzthieno[3,2-d]pyrimidine-2,4(1H,3H)-dione hydrochloride], the Ki [1] was 9.3 nM.
